Reference: patent US12208130B2, “Treatment of women affected with polycystic ovary syndrome” (INSTITUT NATIONAL DE LA SANTE ET DE LA RECHERCHE MEDICALE …, priority 2017, dated 2025)
Where a SMILES comes first, the peptide text is derived from it. [ ]: non-standard residue; d: D form. dPhe(4-Cl) = N[C@H](Cc1ccc(Cl)cc1)C(=O)O; d2Nal = N[C@H](Cc1ccc2ccccc2c1)C(=O)O; dCit = NC(=O)NCCC[C@@H](N)C(=O)O; d3Pal = N[C@H](Cc1cccnc1)C(=O)O

B1: proAMH: AMH proprotein (Origene Technologies, Cat # TP308397), injected prenatally 0.12 mg/Kg/d (protein, UniProt P03971 25-560, looked up)
pro-form: LRAEEPAVGTSGLIFREDLDWPPGSPQEPLCLVALGGDSNGSSSPLRVVGALSAYEQAFLGAVQRARWGPRDLATFGVCNTGDRQAALPSLRRLGAWLRDPGGQRLVVLHLEEVTWEPTPSLRFQEPPPGGAGPPELALLVLYPGPGPEVTVTRAGLPGAQSLCPSRDTRYLVLAVDRPAGAWRGSGLALTLQPRGEDSRLSTARLQALLFGDDHRCFTRMTPALLLLPRSEPAPLPAHGQLDTVPFPPPRPSAELEESPPSADPFLETLTRLVRALRVPPARASAPRLALDPDALAGFPQGLVNLSDPAALERLLDGEEPLLLLLRPTAATTGDPAPLHDPTSAPWATALARRVAAELQAAAAELRSLPGLPPATAPLLARLLALCPGGPGGLGDPLRALLLLKALQGLRVEWRGRDPRGPGRAQRSAGATAADGPCALRELSVDLRAERSVLIPETYQANNCQGVCGWPQSDRNPRYGNHVVLLLKMQVRGAALARPPCCVPTAYAGKLLISLSEERISAHHVPNMVATECGCR
modifications: pro-form
notes: AMH proprotein (Origene Technologies, Cat # TP308397), injected prenatally 0.12 mg/Kg/d

Experiments:
[1] = tested on: C57BL6/J (B6) dams and their female offspring; test: Plasma testosterone, LH and LH pulsatility in adult diestrus female offspring; format: in vivo, mouse
Method: FIGS. 3A-3J-4. Prenatal AMH treatment leads to hyperandrogenism and elevation in LH secretion/pulsatility. (FIG. 3A) Anogenital distance (AGD) was measured over post-natal days (P) 30, 35, 40, 50, and 60 in adult female control (n=6-14), PAMH (n=11-19), PAMH+GnRH antag (n=10), and GnRH antag (n=4) mice. […] One-way ANOVA and Tukey's multiple comparison post hoc test, F(19-183)=130.1, ***P<0.0001 among treatment groups and ages (P30, F(3, 43)=84.48, *P<0.05, ***P<0.0001; P35, F(3, 43)=116.9, *P<0.05, ***P<0.0001; P40, F(3, 43)=207.5, *P<0.05, ***P<0.0001; P50, F(3,27)=72.69, ***P<0.0001; P60, F(3,27)=110.5, ***P<0.0001). Bars from left to right in each group: Control, PAMH, PAMH+GnRH antag, GnRH antag. (FIG. 3B) Plasma testosterone was measured in adult females (P60) in diestrus. […] One-way ANOVA and Tukey's multiple comparison post hoc test, F(2,12)=28.67, ***P<0.0001. Bars from left to right: Control, PAMH, PAMH+GnRH antag. (FIG. 3C) Plasma LH was measured in adult females (P60) in diestrus. […] One-way ANOVA and Tukey's multiple comparison post hoc test, F(2,24)=257.3, *P<0.05, ***P<0.0001. Bars from left to right: Control, PAMH,
PAMH+GnRH antag. (FIG. 3D) Schematic representation of tail-tip blood sampling in adult diestrus female mice (3-4 months old). (FIG. 3E) Tail blood was collected every 10 min for 2 h and LH measured from 10 a.m-12 p.m in adult (P60) diestrus females (Control, n=8; PAMH, n=10; PAMH+GnRH antag, n=9; One-way ANOVA and Tukey's multiple comparison post hoc test, F(2,24)=57.06, *P<0.05, ***P<0.0001). Bars from left to right: Control, PAMH, PAMH+GnRH antag. (FIGS. 2F-1, 2F-2, 2F-3) Representative graphs for LH pulsatility over 2-hr in one female adult (P60) mouse of each treatment. Asterisks in (FIG. 3F) indicate the number of LH pulses/2-hr. (FIG. 3G) Mean circulating testosterone and LH levels were analyzed in pregnant PBS-treated (n=4) and AMH-treated (n=4) dams at embryonic day (E) 19.5 of gestation. […] (FIG. 3H) Relative mRNA expression of placental Cyp191a (aromatase) in control (n=4) and AMH (n=4)-treated pregnant animals at E19.5. Cyp191a expression in the placenta is higher in AMH-treated pregnant dams as compared to control-treated pregnant dams (Unpaired Student's t-test, t(6)=5.414, **P<0.005). Values are expressed as relative to the mean of each treatment. All values are expressed as mean±s.e.m. (FIGS. 3I-1, 3I-2, 3I-3, 3I-4) Dams were injected from E16.5 to E18.5 with either PBS (vehicle, n=9-11), AMH (n=8-10), AMH+GnRH antag (n=5) and trunk blood was collected at E19.5 for hormonal measurements by ELISA. Data were combined from at least two independent experiments. In FIGS. 3I-1, 3I-2, 3I-3, 3I-4: left bar: vehicle; middle bar: AMH; right bar: AMH+GnRH antagonist. […]

pregnant mice = test: Dam body weight and fat mass, aborted embryos, litter size, pup weight at birth; format: in vivo, mouse
Method: Dams were injected from E16.5 to E18.5 with either PBS (vehicle, n=8-11), AMH (n=10), AMH+GnRH antag (n=8-10). Body weight (grams: g); (FIG. 9A), subcutaneous fat mass (FIG. 9B) and perigonadal fat mass (FIG. 9C) was measured in dams at gestational day 19.5. (FIG. 9D) Dams were injected from E16.5 to E18.5 with either PBS (vehicle, n=9), AMH (n=9), AMH+GnRH antag (n=9). Dams were sacrificed one day later and the number of aborted embryos per litter was calculated. (FIGS. 9E, 9F) Dams were injected from E16.5 to E18.5 with either PBS (vehicle, n=3), AMH (n=3), AMH+GnRH antag (n=3). The number of pups per litter (FIG. 9E) and the weight of the pups at birth (FIG. 9F) was calculated for each treatment group (vehicle, n=12 pups; AMH, n=11 pups; AMH+GnRH antag, n=12 pups). Values are represented as the mean±s.e.m. […] Data were combined from three independent experiments. FIGS. 9A to 9F: left bar: vehicle; middle bar: AMH; right bar: AMH+GnRH antagonist.

[2] = dams i.p. 0.12 mg/Kg/d E16.5-E18.5, adult female offspring in diestrus vs control

Row | Molecule | PCOS-like neuroendocrine traits in the offspring ([1]; prenatal co-treatment of AMH with the GnRH antagonist) | body weights of pups at birth (pregnant mice; dams i.p. AMH+GnRH antag E16.5-E18.5) | body weight, subcutaneous fat mass or perigonadal fat mass of dams (pregnant mice; dams injected 3 days with AMH+GnRH antag, E19.5) | plasma LH [1, 2] | plasma testosterone [1, 2] | LH pulse frequency / pulsatility ([1]; dams i.p. 0.12 mg/Kg/d E16.5-E18.5, adult female offspring in diestrus, tail blood every 10 min for 2 h)
1 | CC(=O)N[C@H](Cc1ccc2ccccc2c1)C(=O)N[C@H](Cc1ccc(Cl)cc1)C(=O)N[C@H](Cc1cccnc1)C(=O)N[C@@H](CO)C(=O)N[C@@H](Cc1ccc(O)cc1)C(=O)N[C@H](CCCNC(N)=O)C(=O)N[C@@H](CC(C)C)C(=O)N[C@@H](CCCNC(=N)N)C(=O)N1CCC[C@H]1C(=O)N[C@H](C)C(N)=O [Cetrorelix acetate, Ac-D-2Nal-D-Phe(4-Cl)-D-3Pal-Ser-Tyr-D-Cit-Leu-Arg-Pro-D-Ala-NH2] (Ac-[d2Nal][dPhe(4-Cl)][d3Pal]SY[dCit]LRP[dA]-NH2) | prevented the appearance | did not observe any changes | did not find any changes |  |  | 
2 | B1 |  |  |  | increased | increased | constitutively high LH pulsatility
